# Reference: PMC4309801, “Angiotensin Converting Enzyme Inhibitors (ACEI) and doxorubicin pharmacokinetics in women receiving adjuvant breast cancer treatment” (SpringerPlus, 2015)
# Where two headings read alike, the source gives them in different places.
# Experiments:
# [1] = female, human, in vivo
# Description: (§1) Doxorubicin (60 mg/m^2) was administered as an IV infusion over 5–10 minutes followed by an infusion of cyclophosphamide 600 mg/m^2 over 30–60 minutes every two weeks for a total of four cycles (cumulative doxorubicin 240 mg/m^2). All subjects received aprepitant, dexamethasone and palonsetron prior to each infusion of doxorubicin. All subjects received pegfilgrastim subcutaneously 24–72 hours after doxorubicin and cyclophosphamide.
# (§2) This was a randomized, cross-over, single-blinded drug-drug interaction study. All patients received one cycle of AC chemotherapy with enalapril and another cycle of AC with placebo (without enalapril). The two study cycles were consecutive. Patients were randomized to the enalapril intervention or placebo in cycle 1 with cross-over in the subsequent cycle. They began 5 mg of enalapril daily on day −6, and then increased to 10 mg daily on day −2, prior to doxorubicin administration on day 1.
# (§3) Blood samples for pharmacokinetics (doxorubicin and doxorubicinol) were obtained in each subject twice (one cycle with enalapril and one with placebo). Samples were drawn at baseline (immediately prior to start of doxorubicin) and then at 0.5, 1, 2, 4, 24 and 48 hours after the end of infusion. Five milliliters of blood was collected at each sampling time and placed in an EDTA tube for doxorubicin and doxorubicinol analysis. Each sample of whole blood was immediately inverted 10 times, placed on wet ice, centrifuged at 3400 rpm for 10 minutes at 4 degrees C, plasma separated and frozen to −80 degrees C within 15 minutes of collection. Samples remained frozen at −80 degrees C until time of analysis. Samples were batched at the time of analysis.
# (§4) Doxorubicin and doxorubicinol plasma concentration-time data were analyzed using noncompartmental methods (WinNonLin Professional 6.3). Area-under-the-curve (AUC) (0-∞) was estimated by the log/linear trapezoidal method as AUC (0-t*) + C(t*)/Ke where C(t*) was the last observed concentration and Ke is the terminal first order elimination rate constant. Ke was calculated as the slope of the linear portion of the log of plasma-concentration vs time curve using linear regression analysis. Cmax was at the highest observed concentration.
# (§5) The chromatographic separation was performed with a Waters UPLC BEH C18, 2.1 × 50 mm, reversed phase column with a 1.7-micron particle size (Waters, Milford, MA). The mobile phase used for gradient elution consisted of (A) 5 mM ammonium acetate in water, pH 3.5 (B) methanol. […] The column temperature was maintained at 35°C. […] The collision energy was 14 eV, 12 eV and 25 eV, respectively. […] Cartridges were conditioned with 1 mL methanol followed by 1 mL DI water (18 Mohm.cm, type 1). The cartridges were loaded with the samples and centrifuged at 83 × g for 5 minutes and then washed with 1 mL distilled ionized water, centrifuged and transferred to a vacuum manifold for 5 minutes, and eluted with 1 mL methanol. The eluent was evaporated to dryness using a nitrogen evaporator (Zymark Turbo Vap LV, Hopkinton, MA) set at 37°C, and reconstituted in 100 μL of mobile phase (A:B, 45:55). Doxorubicin and doxorubicinol were obtained from Toronto Research Chemicals (Toronto, Ontario, CAN). Daunorubicin was obtained from Sigma-Aldrich (St. Louis, MO). The assays are linear in the range of 1 – 1,000 ng/mL. […] The lower limit of quantification for both analytes is 1 ng/mL.
# (§6) The confidence interval is a measure of the precision of the exposure ratio estimate.
# [2] = Doxorubicin and doxorubicinol plasma pharmacokinetics with and without enalapril (randomized cross-over drug-drug interaction study); details: for AUC(0-∞) geometric mean ratio (90% CI) / Cmax geometric mean ratio (90% CI): with versus without enalapril; for Cmax: geometric mean ± standard error, 17 women
# Description: as §1, §2, §3, §4, §5, §6
# [3] = cited from earlier work; for Incidence of symptomatic heart failure: ref Singal and Iliskovic [1998], Yeh et al. [2004], Muggia and Speyer [1999]; for Incidence of asymptomatic declines in ejection fraction: up to, ref Lenihan and Cardinale [2012]
# clinical = details: female, human, in vivo
# Description: as §1, §2, §3, §4, §5, §6
# [4] = Safety / adverse events in the enalapril-doxorubicin interaction study; type: in vivo, women with breast cancer; details: enalapril 5 then 10 mg daily with doxorubicin and cyclophosphamide
# Excerpt: The two study cycles were consecutive. […] There were no serious or grade 3 or 4 adverse events. The most commonly reported drug-related adverse event was dizziness with 33% experiencing grade 1 dizziness. No clinical cardiac events occurred.
# [5] = design: method as in Cardinale et al. [2006]; details: 12 months after therapy; enalapril 20 mg daily; patients with troponin elevation; placebo 48.3%, p < 0.001; ref Cardinale et al. [2006]; cited from earlier work
"AUC0-∞ ([2]; with enalapril 10 mg daily, doxorubicin 60 mg/m^2 IV, plasma, Table 3 geometric mean ± standard error, text mean (standard error)) [ng·h/mL]","Cmax ([2]; with enalapril 10 mg daily, doxorubicin 60 mg/m^2 IV, plasma) [ng/mL]","AUC0-∞ ([2]; with enalapril exposure, abstract, Mean (SD))","AUC0-∞ ([2]; without enalapril (placebo cycle), doxorubicin 60 mg/m^2 IV, plasma, Table 3 geometric mean ± standard error, text mean (standard error)) [ng·h/mL]","AUC0-∞ ([2]; without enalapril (placebo cycle), doxorubicin 60 mg/m^2 IV, plasma, Table 3 geometric mean ± standard error, text mean (standard error), listed as doxorubicinol)","Cmax ([2]; without enalapril (placebo cycle), doxorubicin 60 mg/m^2 IV, plasma) [ng/mL]","AUC0-∞ ([2]; without enalapril, abstract, Mean (SD))",SMILES,AUC0-∞ [1],90% CI for Cmax geometric mean ratio ([2]; reanalysis removing the outlier Cmax (subject with body mass index 53 kg/m^2)),AUC(0-∞) geometric mean ratio (90% CI) [2],Cmax geometric mean ratio (90% CI) [2],Incidence of symptomatic heart failure ([3]; cumulative doses of 400–500 mg/m^2),Incidence of symptomatic heart failure ([3]; cumulative doses ≥ 600 mg/m^2),Incidence of asymptomatic declines in ejection fraction ([3]; higher doses),Incidence of asymptomatic declines in ejection fraction ([3]; moderate doses (240–400 mg/m^2)),AUC(0-inf) (clinical; AUC0-∞) [ng·h/mL],"AUC(0-inf) (clinical; iv, 60 mg/m2, AUC(0-∞)) [ng·h/mL]",Subjects with grade 1 dizziness [4] [%],Left ventricular ejection fraction [5] [%]
,,,,,,,COc1cccc2c1C(=O)c1c(O)c3c(c(O)c1C2=O)C[C@@](O)(C(=O)CO)C[C@@H]3O[C@H]1C[C@H](N)[C@H](O)[C@H](C)O1 [Doxorubicin],1167.73 (45.26) hr*ng/ml,0.94-1.21,1.02(0.96-1.08),1.19(0.94-1.51),3-4%,more than 30%,30-35%,20-25%,1190,1640,,
1040 ± 80.6,27.81 ± 3.59,1040 (80.6) hr*ng/ml,1056.32 ± 92.03,1056.3 (92.0) ng-hr/mL,29.66 ± 4.68,1056.32 (92.03) hr*ng/ml,"COc1cccc2c1C(=O)c1c(O)c3c(c(O)c1C2=O)C[C@@](O)([C@@H](O)CO)C[C@@H]3O[C@H]1C[C@H](N)[C@H](O)[C@H](C)O1 [Doxorubicinol, doxorubicinol]",,,0.96(0.88-1.05),0.99(0.91-1.08),,,,,,,,
,,,,,,,"CCOC(=O)[C@H](CCc1ccccc1)N[C@@H](C)C(=O)N1CCC[C@H]1C(=O)O [Enalapril, enalapril]",,,,,,,,,,,33,62.8
